In US11674967B2, “Method of identifying potential inhibitors of APO TNFα trimers” (UCB BIOPHARMA SRL, priority 2015, dated 2023):

molecular target: T1, human TNFα trimer (Homo sapiens, UniProt P01375); test: RMSD of crystal structure of compound-bound TNFα trimer to Reference Structure Compound 34; settings: Cα atoms of β-sheet residues, all three subunits, PyMOL
T1 construct: His6Smt-tag (N, cleaved yes); made in house; host or cells: E. coli (vector pEMB54)
Experimental: Cells were pre-cultured at 37° C. in rich media, induced with the addition of 0.1% arabinose and allowed to express overnight at 25° C. in vector pEMB54. This vector introduces a cleavable N-terminal His6Smt-tag. The cells were lysed and purified by Ni-NTA chelate chromatography. The fusion protein was eluted with buffer containing imidazole and cleaved by the addition of protease. The final cleaved TNFα protein was purified by a subtractive Ni chelate chromatography step to remove the fusion tag and further purified by size exclusion chromatography to remove the remaining impurities. The final TNFα product was typically concentrated to 20.0 mg/ml and flash frozen in liquid nitrogen.
Purified human TNF[…] (20.0 mg/ml, VC 2043) was diluted to 4-7 mg/ml in 10 mM HEPES pH 7.5, 150 mM NaCl buffer followed by overnight incubation at 4° C. with 0.3-0.5 mM compound (1-2 molar excess). The TNF[…] compound complexes were crystallized by sitting drop vapor diffusion by mixing 0.5 μl of complex with 0.5 μl of 21.44% PEG 3350, 100 mM Tris, pH 9.0 (UCB1474433); or 22.0% PEG 3350, 100 mM glycine, 100 mM Tris, pH 8.5 (UCB1480595); or 25.6% PEG 3350, 100 mM Tris, pH 8.3, 3% xylitol (UCB5143079) or other formulation with varying precipitant concentration or additives over 100 μl of the same crystallization solution. Other formulations for other compounds include a range of PEG 3350 of 8-28%. Other PEG-like additives include PEG 1000 (8-18%) or PEG 2000 (10-13%). Other additives include MPD (5-13%) or 200 mM NaCl. Other buffers include 100 mM Hepes (pH 7-8), 100 mM Tris or bis-Tris (pH 6.7-9.0). Other non-PEG 3350 crystallization solutions consist of PEG 2000 (14-19%), 100 mM Hepes, pH 8, 25 mM arginine; or 17% PEG 10000, 200 mM ammonium acetate, 100 mM bis-Tris, pH 5.5; or 30% PEG 2000 MME, 100 mM sodium acetate, 100 mM Mes, pH 6.5.
Crystals were briefly soaked in ethylene glycol and/or vitrified directly in liquid nitrogen for data collection.
X-ray diffraction data were collected from a synchrotron source at a wavelength, most frequently, of 0.976484 Å and recorded on CCD detector. […] The structure of the human TNF[…] (VC 2043) complexed with compound was solved by molecular replacement using Phaser with input model of 1TNF. […] Iterative manual model building using Coot (Emsley and Cowtan, 2004) and Refmac (Murshudov et al., 1997) continued until R and Rfree converged. […] The resolution of the structures was most frequently around 2.15 Å.
Root mean squared deviation (RMSD) calculations were carried out to ascertain the distance of each of the crystal structures of distorted TNFα trimer to a reference structure.
RMSD calculations were done using the program PyMOL (www.pymol.org). In this example version 1.7. was used. The cmd.rms PyMOL command was used with defined pairs of atoms. The atoms used were the backbone Ca's of certain residues within the β-strands of TNFα. The residue numbers used are shown below:
These residue numbers are those within the published structure of TNFα with PDB code 1A8M and within the distorted TNFα trimer structures of this invention. The residue numbers are also according to the sequence of SEQ ID NO:36. The residues in each of the three chains with the TNFα structures, (labelled A, B, and C according to our instructions) were used.
The command cmd.rms was used with the following arguments:
rms=cmd.rms(“(moving)”, “(target)”, matchmaker=4, quiet=0, cycles=0)
where “(moving)” is the selection of atoms in a given TNFα structure and “(target)” is the selection of equivalent atoms within the reference structure.
The RMSD was calculated for each structure against all others. The “representative structure” or “Reference Structure” was chosen to be the one with the lowest sum RMSD to all others—the structure “Compound 34” or “Compound34.pdb”.
Reference Structure (Compound 34) and Query Structure (Compound 64) were overlaid (see FIG. 17 with Reference Structure emboldened) by: • 1. […]

T1 sequence (P01375 with tags, fused parts or gaps): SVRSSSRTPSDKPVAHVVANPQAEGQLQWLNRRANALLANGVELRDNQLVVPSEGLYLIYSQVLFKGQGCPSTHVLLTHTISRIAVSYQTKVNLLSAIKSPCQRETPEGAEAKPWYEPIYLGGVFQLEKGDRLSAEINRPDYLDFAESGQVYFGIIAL

| Compound | RMSD (Å) with Compound 34 [Å] |
| --- | --- |
| Cc1nc2cnc(-c3ccc(=O)[nH]c3)cn2c1Cc1cc(Cl)ccc1Cl [Compound 26] | 0.38 |
| COCCNc1ncc(-c2ccc3nc(C)n(Cc4ccccc4OC(F)F)c3c2)cn1 [Compound 44] | 0.25 |
| N#Cc1ccc2nc(Cc3ccc(NC(N)=O)cc3)n(Cc3ccccc3OC(F)F)c2c1 [Compound 30] | 0.23 |
| COc1ccc(OCc2nc3ccc(Br)cc3n2Cc2nc(C)sc2Cl)cn1 [Compound 25] | 0.34 |
| CS(=O)(=O)c1ccc(-c2ccc3nc4n(c3c2)C(c2ccccc2OC(F)F)CC4)cc1 (centres unmarked) [Compound 61] | 0.28 |
| Cc1nc2ccc(-c3cnc(N4CCNC(=O)CC4C)nc3)cn2c1Cc1ccccc1OC(F)F (centres unmarked) [Compound 55] | 0.26 |
| FC(F)Oc1ccccc1C1CCc2nc3ccc(Br)cc3n21 (centres unmarked) [Compound 52] | 0.26 |
| Cc1cc2nc(C)c(Cc3ccccc3OC(F)F)n2cc1-c1cnc(NCC2(C(=O)O)CC2)nc1 [Compound 54] | 0.32 |
| Cc1nc2ccc(-c3ccc(N4CCNCC4)nc3)cc2n1Cc1ccccc1OC(F)F [Compound 32] | 0.24 |
| N#Cc1ccc2nc(Cn3nnc(N4CCOCC4)n3)n(Cc3ccccc3OC(F)F)c2c1 [Compound 40] | 0.17 |
| Cc1ccc(C)c(C2CCc3nc4ccc(Br)cc4n32)c1 (centres unmarked) [Compound 49] | 0.28 |
| N#Cc1ccc2nc(COc3cccc(N4CCC(O)C4=O)c3)n(Cc3ccccc3OC(F)F)c2c1 (centres unmarked) [Compound 35] | 0.16 |
| Cc1nc2ccc(-c3cnn(C)c3)cn2c1Cc1cc(Cl)ccc1Cl [Compound 24] | 0.28 |
| COc1ccc(-c2ccc3nc(Cc4ccc(S(C)(=O)=O)cc4)n(C(C)c4ccccc4)c3c2)cn1 (centres unmarked) [Compound 45] | 0.24 |
| N#Cc1ccc2nc(COc3cccc(N4CCCC4=O)c3)n(Cc3cc(Cl)ccc3Cl)c2c1 [Compound 29] | 0.24 |
| Cc1cc(OCc2nc3ccc(C#N)cc3n2C(C)c2ccccc2)no1 (centres unmarked) [Compound 41] | 0.20 |

| Compound | RMSD (Å) with Compound 34 [Å] |
| --- | --- |
| N#Cc1ccc2nc(COc3cccc(N4CC(O)CC4=O)c3)n(Cc3ccccc3OC(F)F)c2c1 (centres unmarked) [Compound 36] | 0.21 |
| Cc1nc2ccc(-c3cnc(N4CCNC(=O)C4)nc3)cn2c1[C@@H](O)c1ccccc1OC(F)F [Compound 56] | 0.24 |
| CC(c1ccccc1OC(F)F)n1c(COc2cccc(N3CCCC3=O)c2)nc2ccc(Br)cc21 (centres unmarked) [Compound 50] | 0.23 |
| CC(c1ccccc1)n1c(COc2cccc(N3CCCC3=O)c2)nc2ccc(C#N)cc21 (centres unmarked) [Compound 42] | 0.21 |
| Cc1nc2ccc(-c3ccc(N4CCNCC4)nc3)cn2c1C(O)c1ccccc1OC(F)F (centres unmarked) [Compound 47] | 0.26 |
| NC(=O)c1ccc(OCc2nc3ccc(-c4cc[n+]([O-])cc4)cc3n2Cc2cc(Cl)ccc2Cl)cc1 [Compound 21] | 0.22 |
| N#Cc1ccc2nc(COc3cccc(N4CC(O)CC4=O)c3)n(Cc3ccccc3OC(F)F)c2c1 (centres unmarked) [Compound 37] | 0.22 |
| Cc1nc(Cn2c(COc3ccc(C(N)=O)cc3)nc3ccc(-c4cc[n+]([O-])cc4)cc32)cs1 [Compound 22] | 0.23 |
| CS(=O)(=O)c1cccc(OCc2nc3ccc(C#N)cc3n2Cc2cc(Cl)ccc2Cl)c1 [Compound 28] | 0.29 |
| FC(F)Oc1ccccc1C1NCCc2nc3ccc(-c4cnc(N5CCOCC5)nc4)cn3c21 (centres unmarked) [Compound 51] | 0.34 |
| Cc1nc2ccc(-c3cnc(N4CCNC(=O)CC4)nc3)cn2c1C(C)c1ccccc1OC(F)F (centres unmarked) [Compound 57] | 0.30 |
| CC(c1ccccc1OC(F)F)n1c(COc2cccc(N3CCCC3=O)c2)nc2ccc(Br)cc21 (centres unmarked) [Compound 53] | 0.24 |
| COc1ccc(-c2ccc3nc4c(n3c2)C(c2ccccc2)OCC4)cn1 (centres unmarked) [Compound 48] | 0.30 |
| Cc1nc2cc(F)c(-c3cnc(N4CC(O)(C(F)(F)F)C4)nc3)cn2c1[C@@H](O)c1ccccc1OC(F)F [Compound 64, 1-[5-[3-[(S)-[2-(difluoromethoxy)phenyl]-hydroxy-methyl]-7-fluoro-2-methyl-imidazo[1,2-a]pyridin-6-yl]pyrimidin-2-yl]-3-(trifluoromethyl)azetidin-3-ol] | 0.22 |
| CS(=O)(=O)c1ccc(Cc2nc3ccc(-c4ccc(S(C)(=O)=O)cc4)cc3n2Cc2ccccc2OC(F)F)cc1 [Compound 62] | 0.16 |
| Cc1nc2ccc(-c3cnc(N4CCC(C(=O)O)CC4)nc3)cn2c1Cc1ccccc1OC(F)F [Compound 46] | 0.27 |

Now from value to compound:

| RMSD (Å) with Compound 34 [Å] | Compound |
| --- | --- |
| 0.30 | Cc1ccc(C)c(Cn2c(CO)nc3ccc(-c4ccc(N(C)C)nc4)cc32)c1 [Compound 14] |
| 0.28 | Cc1ccc(C)c(Nn2c(C(O)c3ccncc3)nc3ccccc32)c1 (centres unmarked) [Compound 9] |
| 0.14 | COCc1nc2ccc(-c3ccc(N4CCN(C(C)=O)CC4)nc3)cc2n1Cc1ccccc1OC(F)F [Compound 33] |
| 0.25 | Cc1ccc(C)c(Cn2c(C(N)c3ccccc3)nc3ccccc32)c1 (centres unmarked) [Compound 10] |
| 0.21 | Cc1ccc(C)c(Cn2c(Cn3cc(-c4cccc(O)c4)nn3)nc3ccccc32)c1 [Compound 6] |
| 0.17 | COCc1nc2ccc(-c3ccc(N4CCNC(=O)C4)nc3)cc2n1Cc1ccccc1OC(F)F [Compound 38] |
| 0.22 | CNC(=O)c1ccc(OCc2nc3ccc(-c4ccncc4)cc3n2Cc2cc(Cl)ccc2Cl)cc1 [Compound 20] |
| 0.21 | Cc1ccc(C)c(Cn2c(Cc3ccncc3)nc3ccc(-c4ccc(CN5CCCC5)cc4)cc32)c1 [Compound 19] |
| 0.30 | Cc1ccc(C)c(Cn2c(C(O)c3ccncc3)nc3cc(-c4ccc(N5CCNCC5)cc4)ccc32)c1 (centres unmarked) [Compound 11] |
| 0.30 | Clc1ccc(Cl)c(Cn2c(Cc3ccncc3)nc3ccccc32)c1 [Compound 8] |
| 0.24 | Cc1nc(Cn2c(COc3ccc(C(N)=O)cc3)nc3ccc(-c4ccncn4)cc32)cs1 [Compound 23] |
| 0.44 | Cc1ccc(C)c(Cn2c(COCc3ccccc3[N+](=O)[O-])nc3ccccc32)c1 [Compound 17] |
| 0.47 | Cc1ccc(C)c(Cn2c(COc3ccc4ccncc4c3)nc3ccccc32)c1 [Compound 16] |
| 0.31 | Cc1ccc(C)c(Cn2c(Cc3ccncc3)nc3ccc(-c4ccncc4)cc32)c1 [Compound 18] |
| 0.27 | Cc1ccc(C)c(Cn2c(C(O)c3ccncc3)nc3ccc(-c4cn[nH]c4)cc32)c1 (centres unmarked) [Compound 12] |
| 0.24 | N#Cc1ccc2nc(COc3ccc(C(N)=O)nc3)n(Cc3ccccc3OC(F)F)c2c1 [Compound 27] |
| 0.36 | COC(=O)CCc1ccc2nc(C(O)c3ccncc3)n(Cc3cc(C)ccc3C)c2c1 (centres unmarked) [Compound 13] |
| 0.25 | Cc1ccc(C)c(Cn2c(COCc3ccncc3)nc3ccccc32)c1 [Compound 7] |
